In ChEMBL document CHEMBL3046607, “Synthesis and Herbicidal Activity of New 1-Alkyl-3-aryloxypyrazole-4-carboxamide Derivatives” (J Pestic Sci, 2004):
Active and inactive are the calls of the source. The rule behind the calls is not given here.

Legend:
[1] = system: Elatine triandra; test: Pre-emergence herbicidal activity against Elatine triandra assessed as bleaching of stem/leaf parts; type: functional, organism-based
[2] = system: Oryza sativa; test: Phytotoxicity against Oryza sativa cv. Koshihikari (rice) at 33 g a.i/ha measured after 14 days; type: organism-based; details: in vivo, 336 h
[3] = system: Pontederia vaginalis; test: Pre-emergence herbicidal activity against Monochoria vaginalis assessed as bleaching of stem/leaf parts; type: functional, organism-based
[4] = system: Ammannia multiflora; test: Pre-emergence herbicidal activity against Ammannia multiflora assessed as bleaching of stem/leaf parts; type: functional, organism-based
[5] = system: Rotala indica; test: Pre-emergence herbicidal activity against Rotala indica at 33 g a.i/ha measured after 14 days; type: functional, organism-based
[6] = system: Ammannia multiflora; test: Post-emergence herbicidal activity against Ammannia multiflora assessed as bleaching of stem/leaf parts; type: functional, organism-based
[7] = system: Cyperus difformis; test: Post-emergence herbicidal activity against Cyperus difformis assessed as bleaching of stem/leaf parts; type: functional, organism-based; also: test concentration or dose not given here
[8] = system: Elatine triandra; test: Post-emergence herbicidal activity against Elatine triandra assessed as bleaching of stem/leaf parts; type: functional, organism-based; also: test concentration or dose not given here
[9] = system: Pontederia vaginalis; test: Pre-emergence herbicidal activity against Monochoria vaginalis at 33 g a.i/ha measured after 14 days; type: functional, organism-based
[10] = system: Rotala indica; test: Post-emergence herbicidal activity against Rotala indica assessed as bleaching of stem/leaf parts; type: functional, organism-based
[11] = system: Lindernia procumbens; test: Pre-emergence herbicidal activity against Lindernia procumbens assessed as bleaching of stem/leaf parts; type: functional, organism-based
[12] = system: Echinochloa oryzicola; test: Pre-emergence herbicidal activity against Echinochloa oryzicola at 33 g a.i/ha measured after 14 days; type: functional, organism-based
[13] = system: Lindernia procumbens; test: Post-emergence herbicidal activity against Lindernia procumbens assessed as bleaching of stem/leaf parts; type: functional, organism-based; also: test concentration or dose not given here
[14] = system: Schoenoplectiella juncoides; test: Post-emergence herbicidal activity against Schoenoplectiella juncoides assessed as bleaching of stem/leaf parts; type: functional, organism-based; also: test concentration or dose not given here
[15] = system: Schoenoplectiella juncoides; test: Pre-emergence herbicidal activity against Schoenoplectiella juncoides assessed as bleaching of stem/leaf parts; type: functional, organism-based
[16] = system: Cyperus difformis; test: Pre-emergence herbicidal activity against Cyperus difformis assessed as bleaching of stem/leaf parts; type: functional, organism-based
[17] = system: Lindernia procumbens; test: Pre-emergence herbicidal activity against Lindernia procumbens at 33 g a.i/ha measured after 14 days; type: functional, organism-based
[18] = system: Cyperus difformis; test: Pre-emergence herbicidal activity against Cyperus difformis at 33 g a.i/ha measured after 14 days; type: functional, organism-based
[19] = system: Ammannia multiflora; test: Pre-emergence herbicidal activity against Ammannia multiflora at 33 g a.i/ha measured after 14 days; type: functional, organism-based
[20] = system: Elatine triandra; test: Pre-emergence herbicidal activity against Elatine triandra at 33 g a.i/ha measured after 14 days; type: functional, organism-based
[21] = system: Echinochloa oryzicola; test: Pre-emergence herbicidal activity against Echinochloa oryzicola assessed as bleaching of stem/leaf parts; type: functional, organism-based
[22] = system: Echinochloa oryzicola; test: Post-emergence herbicidal activity against Echinochloa oryzicola assessed as bleaching of stem/leaf parts; type: functional, organism-based
[23] = system: Schoenoplectiella juncoides; test: Pre-emergence herbicidal activity against Schoenoplectiella juncoides at 33 g a.i/ha measured after 14 days; type: functional, organism-based
[24] = system: Rotala indica; test: Pre-emergence herbicidal activity against Rotala indica assessed as bleaching of stem/leaf parts; type: functional, organism-based
[25] = system: Pontederia vaginalis; test: Post-emergence herbicidal activity against Monochoria vaginalis assessed as bleaching of stem/leaf parts; type: functional, organism-based

| Compound | Activity [1] | Activity [2] | Activity [3] | Activity [4] | Activity [5] | Activity [6] | Activity [7] | Activity [8] | Activity [9] | Activity [10] | Activity [11] | Activity [12] | Activity [13] | Activity [14] | Activity [15] | Activity [16] | Activity [17] | Activity [18] | Activity [19] | Activity [20] | further results |
| --- | --- | --- | --- | --- | --- | --- | --- | --- | --- | --- | --- | --- | --- | --- | --- | --- | --- | --- | --- | --- | --- |
| Cn1cc(C(=O)Nc2ccccc2Cl)c(Oc2cccc(C(F)(F)F)c2)n1 | Active | Non-toxic | Active | Active | Active | Active | Active | Active | Active | Active | Active | Active | Active | Active | Active | Active | Active | Active | Active | Active | Activity [21]: Active; Activity [22]: Active; Activity [23]: Active; Activity [24]: Active; Activity [25]: Active |
| Cn1cc(C(=O)Nc2ccc(Cl)cc2F)c(Oc2cccc(C(F)(F)F)c2)n1 | Active | Non-toxic | Active | Active | Active | Active | Active | Active | Active | Active | Active | inactive | Active | Active | Active | Active | Active | Active | Active | Active | Activity [21]: Active; Activity [22]: Active; Activity [23]: inactive; Activity [24]: Active; Activity [25]: Active |
| CC(C)n1cc(C(=O)Nc2ccc(F)cc2F)c(Oc2cccc(C(F)(F)F)c2)n1 | Active | Non-toxic | Active | Active | inactive | Active | Active | Active | inactive | Active | Active | inactive | Active | Active | Active | Active | inactive | inactive | inactive | inactive | Activity [21]: Active; Activity [22]: Active; Activity [23]: inactive; Activity [24]: Active; Activity [25]: Active |
| Cn1cc(C(=O)Nc2ccc(F)cc2)c(Oc2cccc(C(F)(F)F)c2)n1 | Active | Non-toxic | Active | Active | Active | Active | Active | Active | Active | Active | Active | Active | Active | Active | Active | Active | Active | Active | Active | Active | Activity [21]: Active; Activity [22]: Active; Activity [23]: inactive; Activity [24]: Active; Activity [25]: Active |
| Cn1cc(C(=O)Nc2ccc(F)cc2Cl)c(Oc2cccc(C(F)(F)F)c2)n1 | Active | Non-toxic | Active | Active | Active | Active | Active | Active | Active | Active | Active | Active | Active | Active | Active | Active | Active | Active | Active | Active | Activity [21]: Active; Activity [22]: Active; Activity [23]: Active; Activity [24]: Active; Activity [25]: Active |
| Cn1cc(C(=O)Nc2ccccc2F)c(Oc2cccc(C(F)(F)F)c2)n1 | Active | Non-toxic | Active | Active | Active | Active | Active | Active | Active | Active | Active | Active | Active | Active | Active | Active | Active | Active | Active | Active | Activity [21]: Active; Activity [22]: Active; Activity [23]: inactive; Activity [24]: Active; Activity [25]: Active |
| O=C(Nc1ccc(F)cc1F)c1cn(CCF)nc1Oc1cccc(C(F)(F)F)c1 | Active | Non-toxic | Active | Active | inactive | Active | Active | Active | inactive | Active | Active | inactive | Active | Active | Active | Active | inactive | inactive | inactive | inactive | Activity [21]: Active; Activity [22]: Active; Activity [23]: inactive; Activity [24]: Active; Activity [25]: Active |
